Compound	melting point
CCOC(=O)C(Cc1ccc(C(F)(F)F)cc1)C(=O)c1cccc(F)c1 (stereo not given)	50 to 51 °C
CN(C)C=NS(=O)(=O)c1cc(Br)cc(Br)c1	157 to 158 °C
Fc1ccc(-c2cccc(F)n2)cc1	34 °C
CCCCN(C(=O)C1CCCCC1)c1nn(C)cc1Cl	110 to 112 °C
OCCCN1CCC(c2ccccc2)(c2ccccc2)CC1	97 °C
Nc1ccc(C(=O)NCC(=O)O)c(F)c1	190 to 194 °C
CC(C)(C)c1cc(NC(=O)Nc2cccc(Cl)c2Cl)c(-c2ccncc2)o1	195 to 198 °C
O=C(c1cccc2c1NCC2)N1CCN(c2cccc(C(F)(F)F)c2)CC1	115 to 118 °C
C=CCc1c(C)cc(C)cc1O	51 °C
N#Cc1ccc2nccn2c1	166 to 167 °C
CC1(C)OCC(Cc2ccc(C=Cc3ccc([N+](=O)[O-])cc3)cc2)O1 (stereo not given)	146 to 147 °C
Cc1[nH]nc(NC2CCCCC2)c1C(=O)O	162 to 163 °C
Cc1nccn1-c1nc(-c2ccc(Cl)cc2)c(CCC#N)o1	163 to 164 °C
Oc1cc2[nH]c3ccccc3c2cc1O	279 to 283 °C
COc1cc(NCCCCCCN2CCN(CCCO)CC2)c2nccc(C)c2c1	100 to 102 °C
Cc1ccc(S(=O)(=O)N(C)SN(c2cc(C(F)(F)F)ccc2Cl)c2c([N+](=O)[O-])cc([N+](=O)[O-])cc2C(F)(F)F)cc1	142 to 144 °C
CNS(=O)(=O)Cc1ccc2[nH]cc(CC(=O)O)c2c1	126 to 133 °C
Cc1cc(CN(Cc2ccc(F)cc2)c2cc(-c3ccc(C(F)(F)F)cc3)nn2C)cc(C)c1OC(C)(C)C(=O)O	> 90 °C
CCCCc1nc(C(O)C(C)C)c(C(N)=O)n1Cc1ccc(-c2ccccc2C(=O)O)cc1 (stereo not given)	> 131 °C
Cc1c(C)c2c(c(C)c1NC(=O)CC(C)(C)C)C(O)C(C)(C)O2 (stereo not given)	204 to 206 °C
CCOP(=O)(OCC)Oc1cc(C(C)C)c(NC(=O)CN2CCN(CCSc3nc4ccccc4o3)CC2)c(C(C)C)c1	108 to 109 °C
COC(=O)c1nn(C2CCCCO2)cc1NC(=O)c1ccccn1 (stereo not given)	131 to 132 °C
NC(CCCCNC(=O)NC(Cc1c[nH]c2ccccc12)C(=O)O)C(=O)O (stereo not given)	133 °C
CN1CCN(Cc2cc(C(=O)c3ccc(Cl)cc3)cc(C(C)(C)C)c2O)CC1	131 to 132 °C
CCOCCn1c(N2CCCN(CCC3(c4ccccc4)CCN(C(=O)c4cc(OC)c(OC)c(OC)c4)C3)CC2)nc2ccccc21 (stereo not given)	82 to 94 °C

Compound	melting point
CC1(C)CCC(C)(C)c2cc(C3NC(=O)NC3=O)ccc21 (stereo not given)	213 to 214 °C
CCCCNC(=O)[C@H](C)C[C@H](O)[C@H](CC1CCCCC1)NC(=O)[C@H](Cc1cscn1)NC(=O)[C@@H](CC(=O)N1CCOCC1)Cc1ccc(OC)cc1	130 to 132 °C
Clc1ccc(CNc2nc(-c3nccc4ccccc34)nc3ccccc23)cc1	221 to 224 °C
CCCN(CCCCc1c[nH]c2ccc(F)cc12)C1COc2c(F)ccc(C(N)=O)c2C1 (stereo not given)	115 °C
CC(C)(NC(=O)c1nnc2ccc(NCCCN3CCC(OC(c4ccccc4)c4ccccc4)CC3)nn12)C(=O)O	191 to 193 °C
CC(=O)c1cnn2ccccc12	96 to 97 °C
Cc1ccc(S(=O)(=O)N(c2ccc(Cl)cc2C(=O)O)C(C)C)cc1	175 to 176 °C
CC(C)(Sc1cc(C(C)(C)C)c(O)c(C(C)(C)C)c1)Sc1cc(C(C)(C)C)c(OCCC(O)C(O)CCO)c(C(C)(C)C)c1 (stereo not given)	75 to 77 °C
CN(C)Cc1ccc(CSCCNC(=NC(=O)CNN2C(=O)c3ccccc3C2=O)N(C)N=Cc2ccccc2)o1	115 °C
CC(C)CCC1(CCc2ccccc2)CC(O)=CC(=O)O1 (stereo not given)	99 to 100 °C
CC(C)(C)C(=O)Oc1ccc(S(=O)(=O)c2ccc(S(N)(=O)=O)s2)cc1	192 to 195 °C
NS(=O)(=O)c1ccc(-n2nc(CNC(=O)NO)cc2-c2ccc(Cl)cc2)cc1	216 to 218 °C
CC(O)c1ccc(-c2ccc3c(c2)CC(C(=O)O)O3)cc1 (stereo not given)	155 to 157 °C
CC(C)Oc1ccc2c(c1)N(C)C(=O)N(c1ccc(C(F)(F)F)cc1)S2(=O)=O	158 to 160 °C
CC1(C)CC(c2ccccn2)c2ccccc2O1 (stereo not given)	99 to 101 °C
NC/C=C/COc1ccc(-n2ccnc2)cc1	81 to 83 °C
COc1nc2cccc(C=O)c2nc1OC	137 to 140 °C
CCNc1nc(C)nc(O)c1C(C)C	180 °C
O=C(O)c1cc(C(=O)O)c(C(O)=NCO)cc1C(O)=NCO	300 °C
CC(C)(C)N(NC(=O)c1ccccc1)C(=S)c1ccccc1	169 to 171 °C
CN(C)CCCOc1cc(F)c(-c2c(Cl)nc(-n3ccnc3)nc2NCC(F)(F)F)c(F)c1	47 to 49 °C
N#CC(Cc1cccc(F)c1)n1nnc2cc3c(cc2c1=O)OC1CCCN1C3=O (stereo not given)	182 to 184 °C
NC(=O)Cc1ccc2ccn(C3CCN(CCc4ccc(F)cc4)CC3)c2c1	112 to 113 °C
O=C1CCC2=C(CCc3cccc(Br)c32)N1	189 to 190 °C
Cc1ccc(-c2cc3onc(-c4ccccc4)c3c(=O)n2C)cc1	155 to 156 °C

Source: a melting point compilation (Tetko et al.; mined from patent text by program, amines drawn as free bases though some values may be those of a salt)
